One may read the IC50 as the concentration at which inhibition is half-maximal.

Each structure is given as a SMILES string.

Assay [1] deals with BTK (phospho-BTK) in human whole blood (Homo sapiens, UniProt Q06187). Nature of the assay: In vitro PD assay in human whole blood (pBTK assay).
The next assay concerns the target T1, BTK enzyme (Homo sapiens, UniProt Q06187).
T1 construct: purchased Upstate 14-552
Nature of the assay: In vitro BTK kinase assay: BTK-POLYGAT-LS assay. Format: biochemical. The following applies: ATP 10 μM, read-out: IC50 (10uMATP). In outline: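 Human BTK activity was measured with final 10 μM ATP and 100 nM polyGAT substrate in pH 7.5 Tris buffer with 10 mM MgCl2, DTT, Triton X-100 and casein.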

T1 sequence (Q06187 whole entry): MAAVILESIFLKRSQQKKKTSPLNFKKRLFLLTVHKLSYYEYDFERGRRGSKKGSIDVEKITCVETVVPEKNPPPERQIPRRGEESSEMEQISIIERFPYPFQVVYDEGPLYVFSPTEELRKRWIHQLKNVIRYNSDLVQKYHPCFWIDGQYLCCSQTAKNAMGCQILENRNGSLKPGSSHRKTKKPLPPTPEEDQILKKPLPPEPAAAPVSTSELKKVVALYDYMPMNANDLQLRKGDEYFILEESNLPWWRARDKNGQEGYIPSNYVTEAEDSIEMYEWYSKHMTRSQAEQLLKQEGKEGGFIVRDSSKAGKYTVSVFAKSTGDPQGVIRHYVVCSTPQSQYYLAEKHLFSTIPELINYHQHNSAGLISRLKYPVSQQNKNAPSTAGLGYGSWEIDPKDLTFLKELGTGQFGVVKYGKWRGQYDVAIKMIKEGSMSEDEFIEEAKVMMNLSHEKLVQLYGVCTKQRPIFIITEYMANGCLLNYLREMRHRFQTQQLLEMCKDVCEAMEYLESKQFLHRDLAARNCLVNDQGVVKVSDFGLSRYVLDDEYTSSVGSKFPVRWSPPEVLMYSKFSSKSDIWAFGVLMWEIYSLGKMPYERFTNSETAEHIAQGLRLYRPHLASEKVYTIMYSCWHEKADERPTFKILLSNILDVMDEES
BTK (phospho-BTK) in human whole blood, sequence (Q06187 whole entry): as above

Consider `Cn1cc(Nc2nccc(-c3ccc(CNC(=O)N4CCC(C(C)(C)C)C4)c(C#N)c3)n2)cn1` (centres unmarked) [Example I-210, 3-(tert-butyl)-N-(2-cyano-4-(2-((1-methyl-1H-pyrazol-4-yl)amino)pyrimidin-4-yl)benzyl)pyrrolidine-1-carboxamide], for which the figures for the IC50 (in assay [1]; at BTK enzyme) were less than 500 nM and less than 10 nM, respectively.

As for `Cc1cc(-c2ccnc(Nc3cnn(C[C@@H](N)C(=O)O)c3)n2)ccc1CNC(=O)c1cnc(C(C)(C)C)s1` [Example I-132, (R)-2-amino-3-(4-((4-(4-((2-(tert-butyl)thiazole-5-carboxamido)methyl)-3-methylphenyl)pyrimidin-2-yl)amino)-1H-pyrazol-1-yl)propanoic acid], the IC50 in assay [1] is 1500 to 10000 nM; at BTK enzyme it was less than 10 nM.

Regarding `Cc1cc(-c2cc(Nc3cc4n(n3)CCN(C)C4)ncn2)ccc1CNC(=O)c1cnc(C(C)(C)C)s1` [Example I-63, 2-(tert-butyl)-N-(2-methyl-4-(6-((5-methyl-4,5,6,7-tetrahydropyrazolo[1,5-a]pyrazin-2-yl)amino)pyrimidin-4-yl)benzyl)thiazole-5-carboxamide], the half-maximal inhibitory concentration (IC50) in assay [1] is less than 500 nM; on BTK enzyme, less than 10 nM.

For `COCCc1cc(-c2ccnc(Nc3cnn(C)c3)n2)ccc1CNC(=O)N1CCC(C(C)(C)C)C1` (centres unmarked) [Example I-320, 3-tert-butyl-N-[[2-(2-methoxyethyl)-4-[2-[(1-methylpyrazol-4-yl)amino]pyrimidin-4-yl]phenyl]methyl]pyrrolidine-1-carboxamide], the results for the IC50 (in assay [1]; at BTK enzyme) were less than 500 nM and less than 10 nM, respectively.

`Cn1cc(Nc2nccc(-c3ccc(CNC(=O)c4cnn(C(C)(C)C)c4)c(C(F)(F)F)c3)n2)cn1` [Example I-202, 1-(tert-butyl)-N-(4-(2-((1-methyl-1H-pyrazol-4-yl)amino)pyrimidin-4-yl)-2-(trifluoromethyl)benzyl)-1H-pyrazole-4-carboxamide]: the half-maximal inhibitory concentration (IC50) is less than 500 nM in assay [1] and less than 10 nM at BTK enzyme.

Consider `CCC1CN(C(=O)NCc2ccc(-c3ccnc(Nc4cnn(C)c4)n3)cc2C)C1` [Example I-238, 3-Ethyl-N-(2-methyl-4-(2-((1-methyl-1H-pyrazol-4-yl)amino)pyrimidin-4-yl)benzyl)azetidine-1-carboxamide], for which the IC50 in assay [1] is less than 500 nM; on BTK enzyme, less than 10 nM.

Take `Cc1cc(-c2nc(Nc3cnn(C)c3)ncc2F)ccc1CNC(=O)c1cnc(C(C)(C)C)s1` [Example I-111, 2-(tert-butyl)-N-(4-(5-fluoro-2-((1-methyl-1H-pyrazol-4-yl)amino)pyrimidin-4-yl)-2-methylbenzyl)thiazole-5-carboxamide]: the IC50 in assay [1] is 1500 to 10000 nM; on BTK enzyme, less than 10 nM.

On to `CCn1cc(Nc2nccc(-c3ccc4c(c3)CCCCC4NC(=O)N3CCC(C(C)C)C3)n2)cn1` (centres unmarked) [Example I-341, N-[2-[2-[(1-ethylpyrazol-4-yl)amino]pyrimidin-4-yl]-6,7,8,9-tetrahydro-5H-benzo[7]annulen-5-yl]-3-isopropyl-pyrrolidine-1-carboxamide], for which the IC50 in assay [1] was less than 500 nM; at BTK enzyme it was less than 10 nM.

In the case of `Cc1cc(-c2cc(Nc3cc4n(n3)CCS(=O)(=O)C4)ncn2)ccc1CNC(=O)c1cnn(C(C)(C)C)c1` [Example I-242, 1-(tert-butyl)-N-(4-(6-((5,5-dioxido-6,7-dihydro-4H-pyrazolo[5,1-c][1,4]thiazin-2-yl)amino)pyrimidin-4-yl)-2-methylbenzyl)-1H-pyrazole-4-carboxamide], the concentration for half-maximal inhibition (IC50) is less than 500 nM in assay [1] and less than 10 nM on BTK enzyme.

With `Cc1cc(-c2ccnc(Nc3cnn(C)c3)n2)ccc1C(CO)NC(=O)c1cnc(C(C)(C)C)s1` (centres unmarked) [Example I-108, 2-(tert-butyl)-N-(2-hydroxy-1-(2-methyl-4-(2-((1-methyl-1H-pyrazol-4-yl)amino)pyrimidin-4-yl)phenyl)ethyl)thiazole-5-carboxamide], the IC50 is 1500 to 10000 nM in assay [1] and less than 10 nM at BTK enzyme.

Regarding `Cc1cc(-c2ccnc(N)n2)ccc1CNC(=O)c1cnc(C(C)(C)C)s1` [Example I-135, N-(4-(2-aminopyrimidin-4-yl)-2-methylbenzyl)-2-(tert-butyl)thiazole-5-carboxamide], the values for the IC50 (in assay [1]; on BTK enzyme) were 1500 to 10000 nM and less than 10 nM, respectively.

With `Cc1cc(-c2cc(Nc3cc4n(n3)CCN(CCO)C4)ncn2)ccc1CNC(=O)c1cnc(C(C)(C)C)s1` [Example I-271, 2-tert-butyl-N-[[4-[6-[[5-(2-hydroxyethyl)-6,7-dihydro-4H-pyrazolo[1,5-a]pyrazin-2-yl]amino]pyrimidin-4-yl]-2-methyl-phenyl]methyl]thiazole-5-carboxamide], the 50% inhibitory concentration (IC50) in assay [1] is less than 500 nM; on BTK enzyme, less than 10 nM.

For the compound `CC(C)(C)C1CCN(C(=O)NC2CCCCc3cc(-c4ccnc(Nc5cnn(C6CCOCC6)c5)n4)ccc32)C1` (centres unmarked) [Example I-330, 3-tert-butyl-N-[2-[2-[(1-tetrahydropyran-4-ylpyrazol-4-yl)amino]pyrimidin-4-yl]-6,7,8,9-tetrahydro-5H-benzo[7]annulen-5-yl]pyrrolidine-1-carboxamide], the IC50 in assay [1] is less than 500 nM; at BTK enzyme, less than 10 nM.

As to `CCOC1CN(C(=O)NC2CCCCc3cc(-c4ccnc(Nc5cnn(C)c5)n4)ccc32)C1` (centres unmarked) [Example I-331, 3-ethoxy-N-[2-[2-[(1-methylpyrazol-4-yl)amino]pyrimidin-4-yl]-6,7,8,9-tetrahydro-5H-benzo[7]annulen-5-yl]azetidine-1-carboxamide], the IC50 in assay [1] was less than 500 nM; at BTK enzyme, less than 10 nM.

For the compound `Cc1cc(-c2ccnc(Nc3cnn(C4CCN(C)CC4)c3)n2)ccc1CNC(=O)N1CC(OC(C)(C)C)C1` [Example I-302, 3-tert-butoxy-N-[[2-methyl-4-[2-[[1-(1-methyl-4-piperidyl)pyrazol-4-yl]amino]pyrimidin-4-yl]phenyl]methyl]azetidine-1-carboxamide], the IC50 in assay [1] is less than 500 nM; on BTK enzyme it was less than 10 nM.

Regarding `Cn1cc(Nc2nccc(-c3ccc(CNC(=O)N4CC(OC(C)(C)C)C4)c(CCO)c3)n2)cn1` [Example I-190, 3-(tert-butoxy)-N-(2-(2-hydroxyethyl)-4-(2-((1-methyl-1H-pyrazol-4-yl)amino)pyrimidin-4-yl)benzyl)azetidine-1-carboxamide], the results for the IC50 (in assay [1]; at BTK enzyme) were less than 500 nM and less than 10 nM, respectively.

For the compound `Cn1cc(Nc2nccc(-c3ccc(CNC(=O)c4cnc(C(C)(C)C)s4)c(C(F)(F)F)c3)n2)cn1` [Example I-116, 2-(tert-butyl)-N-(4-(2-((1-methyl-1H-pyrazol-4-yl)amino)pyrimidin-4-yl)-2-(trifluoromethyl)benzyl)thiazole-5-carboxamide], the 50% inhibitory concentration (IC50) in assay [1] is 500 to 1500 nM; at BTK enzyme, less than 10 nM.

In the case of `Cc1cc(-c2ccnc(Nc3cnn(CCO)c3)n2)ccc1CNC(=O)c1cnc(C(C)(C)C)s1` [Example I-37, 2-(tert-butyl)-N-(4-(2-((1-(2-hydroxyethyl)-1H-pyrazol-4-yl)amino)pyrimidin-4-yl)-2-methylbenzyl)thiazole-5-carboxamide], the 50% inhibitory concentration (IC50) in assay [1] is less than 500 nM; on BTK enzyme it was less than 10 nM.

`Cc1cc(-c2ccnc(Nc3ccc(N4CCN(C)CC4)cn3)n2)ccc1CNC(=O)c1cnc(C(C)(C)C)s1` [Example I-62, 2-(tert-butyl)-N-(2-methyl-4-(2-((5-(4-methylpiperazin-1-yl)pyridin-2-yl)amino)pyrimidin-4-yl)benzyl)thiazole-5-carboxamide]: the 50% inhibitory concentration (IC50) was 1500 to 10000 nM in assay [1] and less than 10 nM at BTK enzyme.

Turning to `Cc1cc(-c2ccnc(Nc3cnn4c3CCC4)n2)ccc1CNC(=O)c1cnc(C(C)(C)C)s1` [Example I-315, 2-tert-butyl-N-[[4-[2-(5,6-dihydro-4H-pyrrolo[1,2-b]pyrazol-3-ylamino)pyrimidin-4-yl]-2-methyl-phenyl]methyl]thiazole-5-carboxamide], the values for the IC50 (in assay [1]; at BTK enzyme) were less than 500 nM and less than 10 nM, respectively.

As to `CC(C)OC1CN(C(=O)NC2CCCCc3cc(-c4ccnc(Nc5cnn(C6CCOCC6)c5)n4)ccc32)C1` (centres unmarked) [Example I-172, 3-isopropoxy-N-(2-(2-((1-(tetrahydro-2H-pyran-4-yl)-1H-pyrazol-4-yl)amino)pyrimidin-4-yl)-6,7,8,9-tetrahydro-5H-benzo[7]annulen-5-yl)azetidine-1-carboxamide], the figures for the IC50 (in assay [1]; at BTK enzyme) were less than 500 nM and less than 10 nM, respectively.

Consider `Cc1cc(-c2ccnc(Nc3cnn(C)c3)n2)ccc1CNC(=O)N1CCOC(C(C)C)C1` (centres unmarked) [Example I-24, 2-isopropyl-N-(2-methyl-4-(2-((1-methyl-1H-pyrazol-4-yl)amino)pyrimidin-4-yl)benzyl)morpholine-4-carboxamide], for which the half-inhibitory concentration (IC50) in assay [1] is 1500 to 10000 nM; on BTK enzyme, 10 to 99 nM.

`Cc1cc(-c2cc(Nc3cc4n(n3)CCOC4)ncn2)ccc1CNC(=O)N1CCC(C(C)(C)C)C1` (centres unmarked) [Example I-288, 3-tert-butyl-N-[[4-[6-(6,7-dihydro-4H-pyrazolo[5,1-c][1,4]oxazin-2-ylamino)pyrimidin-4-yl]-2-methyl-phenyl]methyl]pyrrolidine-1-carboxamide]: the results for the IC50 (in assay [1]; at BTK enzyme) were less than 500 nM and less than 10 nM, respectively.

In the case of `Cc1cc(-c2cc(Nc3cc4n(n3)CC(=O)N(C)C4)ncn2)ccc1CNC(=O)c1cnc(C(C)(C)C)s1` [Example I-286, 2-tert-butyl-N-[[2-methyl-4-[6-[(5-methyl-6-oxo-4,7-dihydropyrazolo[1,5-a]pyrazin-2-yl)amino]pyrimidin-4-yl]phenyl]methyl]thiazole-5-carboxamide], the IC50 in assay [1] is less than 500 nM; at BTK enzyme, less than 10 nM.

For `Cc1cc(-c2ccnc(Nc3cnn(C)c3C)n2)ccc1CNC(=O)c1cnc(C(C)(C)C)s1` [Example I-52, 2-(tert-butyl)-N-(4-(2-((1,5-dimethyl-1H-pyrazol-4-yl)amino)pyrimidin-4-yl)-2-methylbenzyl)thiazole-5-carboxamide], the figures for the IC50 (in assay [1]; at BTK enzyme) were less than 500 nM and less than 10 nM, respectively.

The values above are taken from US10759783B2, “Biaryl inhibitors of Bruton'S tyrosine kinase” (BIOGEN MA INC., priority 2013, dated 2020).
